Source: patent US20260356814A1, “INDOLINE DERIVATIVES AS SEROTONERGIC AGENTS USEFUL FOR THE TREATMENT OF DISORDERS RELATED THERETO” (MINDSET PHARMA INC., priority 2022, published 2026)
pIC50: −log10 of the molar value.

Assays:
human 5-HT1A receptor = target: T1, human 5-HT1A receptor (Homo sapiens, UniProt P08908); experiment: Human 5-HT1A: Radioligand binding assay ([3H]-8-Hydroxy-DPAT); conditions: [3H]-8-Hydroxy-DPAT displacement, 27° C., 90 min, pH 7.4; read-out: h5-HT1A, IC50
T1 construct: expressed in transfected cells; host or cells: CHO (HTR1A&Ga15-CHO)
T1 sequence (P08908 1-422): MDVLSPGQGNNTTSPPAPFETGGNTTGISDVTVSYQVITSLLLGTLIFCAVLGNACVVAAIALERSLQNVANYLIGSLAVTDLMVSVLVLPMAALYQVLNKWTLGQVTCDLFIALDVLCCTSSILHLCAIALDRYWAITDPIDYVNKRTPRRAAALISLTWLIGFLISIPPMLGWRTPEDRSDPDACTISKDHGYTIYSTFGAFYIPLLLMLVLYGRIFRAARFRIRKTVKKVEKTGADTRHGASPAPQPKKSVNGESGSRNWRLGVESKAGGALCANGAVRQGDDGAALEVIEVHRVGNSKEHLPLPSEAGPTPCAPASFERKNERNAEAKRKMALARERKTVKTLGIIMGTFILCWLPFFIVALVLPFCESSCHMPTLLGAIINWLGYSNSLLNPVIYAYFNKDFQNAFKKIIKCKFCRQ
Method: The objective of this study was to evaluate the binding properties of test compounds on 5-hydroxytryptamine receptor 1A (5-HT1A).
• 1. The assay buffer was prepared following the table below.
• 2. 8 doses of reference and test compounds were prepared starting from 10 mM stock solution as required by 5-fold serial dilutions with 100% (v/v) DMSO. • 3. UniFilter-96 GF/B plate was pretreated: • i. 50 μl/well of 0.5% (v/v) PEI was added to UniFilter-96 GF/B plates. The plates were sealed and incubated at 4° C. for 3 hrs. • ii. After incubation, the plates were washed 3 times with ice-cold wash buffer (50 mM Tris, pH7.4). • 4. Assay plate was prepared: • i. Cell membrane was diluted with assay buffer and 100 μl/well was added to 96 round well plates to reach a concentration of 20 μg/well. • ii. 8 concentrations of reference or test compounds were prepared and 50 μl/well was added to 96 round deep well plates. • iii. [3H]-8-Hydroxy-DPAT was diluted with assay buffer to 2 nM (4X final concentration) and 50 μl/well was added to 96 round well plates. • 5. The plate was centrifuged at 1000 rpm for 30 secs and then agitated at 600 rpm, R.T. for 5 min. • 6. The plates were sealed and the plate was incubated at 27° C. for 90 min. • 7. The incubation was stopped by vacuum filtration onto GF/B filter plates followed by 4 times washing with ice-cold wash buffer (50 mM Tris, pH7.4). • 8. The plates were dried at 37° C. for 45 min. • 9. The filter plates were sealed and 40 μl/well of scintillation cocktail was added. • 10. The plate was read by using a Microbeta2 microplate counter.
(§1) • 1. For reference and test compounds, the results were expressed as % Inhibition, using the normalization equation: N=100−100×(U−C2)/(C1−C2), where U is the unknown value, C1 is the average of high controls, and C2 is the average of low controls. • 2. The IC50 was determined by fitting percentage of inhibition as a binding of compound concentrations with Hill equation using XLfit.

human 5-HT2A receptor = human 5-HT2A receptor (Homo sapiens, UniProt P28223); experiment: Human 5-HT2A: Radioligand binding assay ([3H]-ketanserin); conditions: [3H]-ketanserin displacement, 27° C., 90 min, pH 7.4; read-out: h5-HT2A, IC50
Method: Exemplary compounds of Formula I were evaluated functionally using FLIPR assay for their effect on h5-HT2A receptor under agonist mode. The objective of this study was to evaluate the binding properties of exemplary compounds of Formula I on 5-hydroxytryptamine receptor 2A (5-HT2A). • Human 5-HT2A: Radioligand binding assay:
• i. The assay buffer was prepared following the table below.
• Adjust pH to 7.4 followed by […] sterile filtration • ii. 8 doses of reference and test compounds starting from 10 mM stock solution as required was prepared by 5-fold serial dilutions with 100% (v/v) DMSO. • iii. UniFilter-96 GF/B plate was pretreated: • a. 50 μl/well of 0.5% (v/v) PEI was added to UniFilter-96 […] plates. The plates were sealed and incubated at 4° C. for 3 hrs. • b. After incubation, the plates were washed 3 times with ice-cold wash buffer (50 mM Tris, pH7.4). • iv. The assay plate was prepared: • a. Cell membrane was diluted with assay buffer and 330 μl/well was added to 96 round deep well plates to reach a concentration of 20 μg/well. • b. 8 concentrations of reference or test compounds were prepared and 110 μl/well was added to 96 round deep well plates. • c. [3H]-ketanserin was diluted with assay buffer to 5 nM (5X final concentration) and 110 μl/well was added to 96 round deep well plates. • v. The plate was centrifuged at 1000 rpm for 30 secs and then agitated at 600 rpm, R.T. for 5 min. • vi. The plates were sealed and the plate incubated at 27° C. for 90 min. • vii. The incubation was stopped by vacuum filtration onto GF/B filter plates followed by 4 times washing with ice-cold wash buffer (50 mM Tris, pH7.4). • viii. The plates were dried at 37° C. for 45 min. • ix. The filter plates were sealed and 40 μl/well of scintillation cocktail was added. • x. The plate was read by using a Microbeta2 microplate counter.
as §1, with “N=100−100×(U−C2)/(C1-C2),” for “N=100−100×(U−C2)/(C1−C2),”, “function” for “binding”

human 5-HT2A receptor, sequence (P28223 whole entry): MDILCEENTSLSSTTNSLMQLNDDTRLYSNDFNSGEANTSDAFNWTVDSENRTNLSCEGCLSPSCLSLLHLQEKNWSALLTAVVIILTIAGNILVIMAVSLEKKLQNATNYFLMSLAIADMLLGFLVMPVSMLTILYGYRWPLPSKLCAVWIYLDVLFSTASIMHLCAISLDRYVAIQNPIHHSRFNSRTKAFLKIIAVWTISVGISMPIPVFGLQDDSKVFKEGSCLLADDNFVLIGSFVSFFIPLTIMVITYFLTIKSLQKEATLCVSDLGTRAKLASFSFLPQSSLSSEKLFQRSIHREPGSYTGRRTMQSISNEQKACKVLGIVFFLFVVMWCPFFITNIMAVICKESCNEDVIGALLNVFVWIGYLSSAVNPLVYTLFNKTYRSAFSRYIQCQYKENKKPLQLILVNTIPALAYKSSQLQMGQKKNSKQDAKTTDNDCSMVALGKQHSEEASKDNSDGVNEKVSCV

SMILES | pIC50 (human 5-HT1A receptor) | pIC50 (human 5-HT2A receptor)
[2H]C([2H])([2H])N1CCC[C@@H]1C([2H])([2H])N1CCc2ccccc21 [(R)-I-1, (R)-1-((1-(Methyl-d3)pyrrolidin-2-yl)methyl-d2) indoline] | 6.35 | 5.34
[2H]C([2H])([2H])Oc1ccc2c(c1)N(C([2H])([2H])[C@H]1CCCN1C([2H])([2H])[2H])CC2 [(R)-I-28, (R)-6-(Methoxy-d3)-1-((1-(methyl-d3)pyrrolidin-2-yl)methyl-d2) indoline] | 8.30 | 5.07
COc1cc2c(cc1OC)N(C[C@H]1CCCN1C)CC2 [(R)-I-34, (R)-5,6-dimethoxy-1-((1-methylpyrrolidin-2-yl)methyl) indoline] | 5.11 | < 4.52
COc1cccc2c1N(C[C@H]1CCCN1C)CC2 [(R)-I-46, (R)-7-Methoxy-1-((1-methylpyrrolidin-2-yl)methyl) indoline] | 6.67 | 5.61
COc1cccc2c1CCN2C[C@H]1CCCN1C [(R)-I-47, (R)-4-Methoxy-1-((1-methylpyrrolidin-2-yl)methyl) indoline] | 4.81 | < 4.52
[2H]C([2H])([2H])N1CCC[C@@H]1C([2H])([2H])N1CCc2ccc(OC)cc21 [(R)-I-57, (R)-6-Methoxy-1-((1-(methyl-d3)pyrrolidin-2-yl)methyl-d2) indoline] | 8.00 | 5.10
COc1ccc2c(c1)N(C[C@H]1CCCN1C)CC2 [(R)-I-58, (R)-6-Methoxy-1-((1-methylpyrrolidin-2-yl)methyl) indoline] | 7.89 | 5.19
COc1ccc2c(c1)N(C[C@H]1CCCN1)CC2 [(R)-I-59, (R)-6-Methoxy-1-(pyrrolidin-2-ylmethyl) indoline] | 7.07 | 4.82
[2H]C([2H])([2H])N(CCN1CCc2ccc(OC)cc21)C([2H])([2H])[2H] [Compound I-70, 2-(6-Methoxyindolin-1-yl)-N, N-bis(methyl-d3) ethan-1-amine] | 6.71 | 4.59
[2H]C([2H])([2H])N(CCN1CCc2ccccc21)C([2H])([2H])[2H] [Compound I-71, 2-(Indolin-1-yl)-N,N-bis(methyl-d3) ethan-1-amine] | 5.79 | 4.82
